Experimental data reported in patent US7109222B2, “Compounds that modulate PPAR activity and methods of preparation” (Warner-Lambert Company, LLC, priority 2002, dated 2006).

Experiments:
hPPARβ = target: T1, hPPARβ (Homo sapiens, UniProt Q03181); experiment: Test A: transient transfection assay in HepG2 cells, Gal4-PPAR chimeric receptor, luciferase reporter (hPPARβ); type: cell-based; settings: HepG2 cells transfected with hPPARβ chimeric receptor; 24 hours incubation; compound 50 μM to 50 pM; read-out: Hep G2-hβ EC50
T1 sequence (Q03181 211-441 limits assumed): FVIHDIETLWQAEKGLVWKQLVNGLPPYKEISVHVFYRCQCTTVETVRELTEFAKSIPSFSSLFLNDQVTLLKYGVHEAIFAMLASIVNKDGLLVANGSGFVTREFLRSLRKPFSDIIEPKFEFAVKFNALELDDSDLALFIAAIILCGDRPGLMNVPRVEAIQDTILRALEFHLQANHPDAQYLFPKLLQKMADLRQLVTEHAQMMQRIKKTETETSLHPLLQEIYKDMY
Method: (§1) 1. Test A. Transient Transfections Assay Using the HepG2 Hepatoma Cell Line.
(§2) HepG2 cells were transiently transfected with an expression plasmids encoding hPPARα, hPPARβ or mPPARγ chimeric receptors and a reporter containing the yeast upstream activating sequence (UAS) upstream of the viral E1B promoter controlling a luciferase reporter gene. In addition, the plasmid pRSVβ-gal was used to control for transfection efficiency. HepG2 cells were grown in DMEM supplemented with 10% FBS and 1 μM non-essential amino acid. On the first day, cells were split into 100 mm dishes at 2.5×10^6/dish and incubated overnight at 37C.°/5% CO2. On the second day the cells were transiently transfected with plasmid DNA encoding a chimeric receptor, the luciferase reporter gene; and β-gal. For each 100 mm dish, 15 μg of lucifease reporter (PG5E1b) DNA, 15 μg of Gal4-pPAR chimeric receptor DNA, and 1.5 μg of μ-gal plasmid DNA were mixed with 1.4 ml of opti-MEM in the tube. 28 μl of LipoFectamine-2000 reagent was added to 1.4 ml of opti-MEM in the tube, and incubate for 5 min at RT. The diluted Lipofectamine-2000 reagent was combined with the DNA mixture, and incubate for 20 min at RT. After fresh medium was added to each 100 mm dish of cells, 2.8 ml of Lipofectamine2000-DNA mixture was added dropwise to the 100 mm dish containing 14 ml of medium, and incubate 37° C. overnight. On day three cells were trypsinized off the 100 mm dishes and re-plated on 96 well plates. Cells were plated at 2.5×10^4 cells per well in 150 μl of media and 50 μl of compound diluted by media was added. The concentrations of reference agents and test compound added were in the range from 50 μM to 50 pM. After addition of compounds, the plates were incubated at 37° C. for 24 hours. Subsequently cells were washed once with 100 μl of PBS, lysed, and processed for measuring luciferase and μ-gal activity using Dual-Light luciferase kit from Tropix®, according to the manufacturer's recommendations, on an EG&G Bethold MicroLumat LB96P luminometer. EC50 values were obtained using the GraphPad Prism™ program.

hPPARα = target: T2, hPPARα (Homo sapiens, UniProt Q07869); experiment: Test A: transient transfection assay in HepG2 cells, Gal4-PPAR chimeric receptor, luciferase reporter (hPPARα); type: cell-based; settings: HepG2 cells transfected with hPPARα chimeric receptor; 24 hours incubation; compound 50 μM to 50 pM; read-out: Hep G2-hα EC50
T2 sequence (Q07869 200-468 limits assumed): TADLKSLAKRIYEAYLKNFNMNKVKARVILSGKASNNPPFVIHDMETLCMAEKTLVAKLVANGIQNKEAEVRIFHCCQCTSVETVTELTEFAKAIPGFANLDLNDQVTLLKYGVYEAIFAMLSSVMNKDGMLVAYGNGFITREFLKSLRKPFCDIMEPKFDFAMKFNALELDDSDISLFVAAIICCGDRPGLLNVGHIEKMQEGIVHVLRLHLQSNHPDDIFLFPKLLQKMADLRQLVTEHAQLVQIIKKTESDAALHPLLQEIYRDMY
Method: as §1
as §2, with “program. […] Accordingly, the compounds of the present invention should find considerable therapeutic applications for hypercholesterolemia and hyperlipidemia.” for “program.”

| Compound | EC50 (hPPARβ) [µM] | melting point [°C] | EC50 (hPPARα) [µM] |
| --- | --- | --- | --- |
| Cc1nc(-c2ccc(C(F)(F)F)cc2)sc1CSc1ccc2c(c1)CCN(CC(=O)O)C2 [Example 10, {6-[4-Methyl-2-(4-trifluoromethyl-phenyl)-thiazol-5-ylmethylsulfanyl]-3,4-dihydro-1H-isoquinolin-2-yl}-acetic acid] | 0.111 | – | – |
| COc1cc2on(CC(=O)O)c(=O)c2cc1SCc1sc(-c2ccc(C(F)(F)F)cc2)nc1C [Example 22, 6-Methoxy-5-[4-Methyl-2-(4-trifluoromethyl-pheny)-thiazol-5-ylmethylsulfanyl]-3-oxo-3H-benzo[d]isoxazo-2-yl-acetic-acid] | – | 245 to 247 | – |
| Cc1cc2c(cc1SCc1sc(-c3ccc(C(F)(F)F)cc3)nc1C)CCC(CC(=O)O)O2 (stereo not shown) [Example 15, 7-Methyl-6-[4-methyl-2-(4-trifluoromethyl-pheny)-thiazol-5-ylmethylsulfanyl]-chroman-2-yl-acetic acid] | 0.252 | – | 1.3 |
| COc1cc2c(cc1SCc1sc(-c3ccc(C(F)(F)F)cc3)nc1C)CCC2CC(=O)O (stereo not shown) [Example 19, {6-Methoxy-5-[4-methyl-2-(4-trifluoromethyl-phenyl)-thiazol-5-ylmethylsulfanyl]-indan-1-yl}-acetic acid] | 0.113 | – | 0.042 |
| Cc1nc(-c2ccc(C(F)(F)F)cc2)sc1CSc1ccc2c(c1)CC(CC(=O)O)CO2 (stereo not shown) [Example 18, 6-[4-methyl-2-(4-trifluoromethyl-pheny)-thiazol-5-ylmethylsulfanyl]-chroman-3-yl-acetic acid] | 0.394 | 149 to 149.5 | 1000 |
| Cc1nc(-c2ccc(C(F)(F)F)cc2)sc1CSc1ccc2oc(C(=O)O)cc2c1 [Example 6, 5-[4-methyl-2-(4-trifluoromethyl-phenyl)-thiazol-5-ylmethylsulfanyl]-benzofuran-2-carboxylic acid] | – | 207 to 209 | 2.04 |
| Cc1nc(-c2ccc(C(F)(F)F)cc2)sc1CSc1ccc2c(c1)CCC(CC(=O)O)O2 (stereo not shown) [Example 5] | 0.0083 | – | 3.74 |
| Cc1nc(-c2ccc(C(F)(F)F)cc2)sc1CSc1ccc2c(c1)CC(C(=O)O)C2 (stereo not shown) [Example 1, 5-[4-methyl-2-(4-trifluoromethyl-phenyl)-thiazol-5-ylmethylsulfanyl]-indan-2-carboxylic acid] | 0.178 | – | 0.384 |
| Cc1nc(-c2ccc(C(F)(F)F)cc2)sc1CSc1ccc2c(c1)CC(CC(=O)O)C2 (stereo not shown) [Example 2, {5-[4-methyl-2-(4-trifluoromethyl-phenyl)-thiazol-5-ylmethylsulfanyl]-indan-2-yl}-acetic acid] | 0.267 | – | 1.96 |
| Cc1nc(-c2ccc(C(F)(F)F)cc2)sc1CSc1ccc2c(c1)CC(C(=O)O)CO2 (stereo not shown) [Example 17, 6-[4-methyl-2-(4-trifluoromethyl-pheny)-thiazol-5-ylmethylsulfanyl]-chroman-3-carboxylic acid] | 2.13 | 139 to 140 | 2.19 |
| COc1cc2c(cc1SCc1sc(-c3ccc(C(F)(F)F)cc3)nc1C)CCC(CC(=O)O)C2 (stereo not shown) [Example 13, {7-Methoxy-6-[4-methyl-2-(4-trifluoromethyl-phenyl)-thiazol-5-ylmethylsulfanyl]-1,2,3,4-tetrahydro-naphthalen-2-yl}-acetic acid] | 0.0241 | – | 1.19 |
| Cc1nc(-c2ccc(C(F)(F)F)cc2)sc1CSc1ccc2c(c1)CCCN2CC(=O)O [Example 11, {6-[4-methyl-2-(4-trifluoromethyl-phenyl)-thiazol-5-ylmethylsulfanyl]-3,4-dihydro-2H-quinolin-1-yl}-acetic acid] | 0.286 | – | 1.93 |
| Cc1nc(-c2ccc(C(F)(F)F)cc2)sc1CSc1ccc2c(c1)CCC(C)(CC(=O)O)O2 (stereo not shown) [Example 8, {2-methyl-6-[4-methyl-2-(4-trifluoromethyl-phenyl)-thiazol-5-ylmethylsulfanyl]-chroman-2-yl}-acetic acid] | 3.47 | – | – |
| Cc1nc(-c2ccc(C(F)(F)F)cc2)sc1CSc1ccc2c(c1)CC(CC(=O)O)O2 (stereo not shown) [Example 4, {5-[4-Methyl-2-(4-trifluoromethyl-phenyl)-thiazol-5-ylmethylsulfanyl]-2,3-dihydro-benzofuran-2-yl}-acetic acid] | 1.54 | – | 0.899 |
| Cc1nc(-c2ccc(C(F)(F)F)cc2)sc1CSc1ccc2c(c1)CCC(C(=O)O)O2 (stereo not shown) [Example 3] | 0.762 | – | 0.917 |
| Cc1nc(-c2ccc(C(F)(F)F)cc2)sc1CSc1ccc2c(c1)CCC(CC(=O)O)C2=O (stereo not shown) [Example 7, {6-[4-Methyl-2-(4-trifluoromethylphenyl)thiazol-5-ylmethylsulfanyl]-1-oxo-3,4-dihydro-1H-naphthalen-2-yl}-acetic acid] | 0.614 | – | – |
| COc1cc2c(cc1SCc1sc(-c3ccc(C(F)(F)F)cc3)nc1C)CCC(CC(=O)O)O2 (stereo not shown) [Example 14, 7-methoxy-6-[4-methyl-2-(4-trifluoromethyl-pheny)-thiazol-5-ylmethylsulfanyl]-chroman-2-yl-acetic acid] | 0.019 | – | – |
| Cc1nc(-c2ccc(C(F)(F)F)cc2)sc1COc1ccc2c(CC(=O)O)csc2c1 [Example 23, {6-[4-Methyl-2-(4-trifluoromethyl-phenyl)-thiazol-5-ylmethoxy]-benzo[b]thiophen-3-yl}-acetic acid] | – | – | 0.572 |
| Cc1nc(-c2ccc(C(F)(F)F)cc2)sc1CSc1ccc2c(c1)C=C(C(=O)O)CO2 [Example 16, 6-[4-methyl-2-(4-trifluoromethyl-pheny)-thiazol-5-ylmethylsulfanyl]-2H-chromene-3-carboxylic acid] | 2.21 | – | – |
| Cc1nc(-c2ccc(C(F)(F)F)cc2)sc1CSc1ccc2c(c1)CCC(=O)N2CC(=O)O [Example 12] | 0.896 | – | – |
